SMILES strings stand for the structures. pIC50: −log10 of the molar value. Where two headings read alike, the source gives them in different places.

Broadly, the pIC50 is the IC50 on a negative log10 scale, so that one unit is a factor of ten.

The assay has as its target T1, androgen receptor (Homo sapiens, UniProt P10275).
T1 sequence (P10275 1-920 Q868H): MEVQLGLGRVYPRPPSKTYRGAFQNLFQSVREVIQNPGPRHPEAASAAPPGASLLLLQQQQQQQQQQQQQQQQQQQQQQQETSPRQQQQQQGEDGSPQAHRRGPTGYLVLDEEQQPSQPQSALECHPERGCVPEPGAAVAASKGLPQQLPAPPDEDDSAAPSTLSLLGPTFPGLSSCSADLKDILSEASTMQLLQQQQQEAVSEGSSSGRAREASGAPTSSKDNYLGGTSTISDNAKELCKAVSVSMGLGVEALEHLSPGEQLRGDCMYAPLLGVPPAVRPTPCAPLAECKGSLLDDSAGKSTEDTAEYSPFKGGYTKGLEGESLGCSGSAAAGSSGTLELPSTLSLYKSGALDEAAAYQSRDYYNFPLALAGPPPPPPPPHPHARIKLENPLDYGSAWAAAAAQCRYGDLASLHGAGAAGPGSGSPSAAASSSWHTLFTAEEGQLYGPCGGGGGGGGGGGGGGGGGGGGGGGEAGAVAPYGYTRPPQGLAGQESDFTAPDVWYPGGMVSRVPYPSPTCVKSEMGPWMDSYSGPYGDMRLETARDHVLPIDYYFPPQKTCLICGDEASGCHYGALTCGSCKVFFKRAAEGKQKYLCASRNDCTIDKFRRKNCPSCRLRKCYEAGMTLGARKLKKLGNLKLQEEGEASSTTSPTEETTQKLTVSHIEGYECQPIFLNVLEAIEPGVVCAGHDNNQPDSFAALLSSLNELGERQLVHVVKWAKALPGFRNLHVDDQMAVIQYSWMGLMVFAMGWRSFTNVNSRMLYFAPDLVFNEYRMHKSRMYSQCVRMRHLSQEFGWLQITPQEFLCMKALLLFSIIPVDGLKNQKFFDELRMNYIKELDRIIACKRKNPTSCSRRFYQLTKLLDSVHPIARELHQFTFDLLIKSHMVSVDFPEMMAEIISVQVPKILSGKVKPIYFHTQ
Description: AR Antagonist Cell Assay (MMTV-luciferase reporter, inhibition of DHT induction). The class given is cell-based. Here is the method:
The compounds ability to antagonize the effects of androgen on the androgen receptor were determined in the protocol described immediately below.
Experimental Procedure for AR Antagonist Cell Assay
Cell line: MDA-MB453-MMTV clone 54–19. This cell line is a stable transfected cell line with MDA-MB453 cell background (human breast tumor cell expressing high level of androgen receptor). A MMTV minimal promoter containing ARE was first cloned in front of a firefly luciferase reporter gene. Then the cascade was cloned into transfection vector pUV120puro. Electroporation method was used for transfecting MDA-MB-453 cell. Puromycin resistant stable cell line was selected. Cell Culture Media and Reagents:
Culture medium: DMEM (high glucose, Gibco cat #: 11960-044), 10% FBS, and 1% L-glutamine
Plating medium: DMEM (phenol red free), 10% charcoal treated HyClone serum, 1% L-glutamine
Assay medium: DMEM (phenol red free), 1% charcoal treated HyClone serum, 1% L-glutamine, and 1% penicillin/streptomycin
3× luciferase buffer: 2% beta-mercaptoethanol, 0.6% ATP, 0.0135% luciferine in cell lysis buffer
• 1. Cells are maintained in culture medium, splitting cells when they reach 80–90% confluence • 2. To test compounds, 10,000 cells/well are plated to opaque 96 cell culture plate in 100 ul/well plating medium, culture for overnight at 37° C. in cell culture incubator • 3. Carefully remove plating medium, then add 80 ul/well of pre-warmed assay medium, add 10 ul/well testing compound (final concentration at 10 uM or 1 uM), incubate at 37° C. for 30 minutes • 4. Add 10 ul/well freshly prepared DHT (final concentration at 100 pM) to each well, incubate at 37° C. for 17 hr (overnight) • 5. Add 50 ul/well 3× luciferase buffer, incubate at room temperature for 5 minutes, then count on Luminometer The fold induction over background by 100 pM DHT in the absence of testing compounds is standardized as 100% and experimental result is expressed as percentage of inhibition by testing compounds.
For orientation: In a reporter assay the amount or activity of a reporter protein is the signal.

[1] abbreviates: MDA-MB453-MMTV clone 54-19 cells, 100 pM DHT, 17 hr, luciferase, read-out: Cell IC50.

In the case of `O=c1cc(C(F)(F)F)c2cc(S(=O)(=O)N3CCCCC3CCO)ccc2[nH]1` (stereo not shown) [Example 29, 6-[2-(2-Hydroxyethyl)-piperidine-1-sulfonyl]-4-trifluoromethyl-1H-quinolin-2-one], the negative logarithm of the IC50 (pIC50) under setting [1] is less than 5.00.

As to `CC1CCN(S(=O)(=O)c2ccc3[nH]c(=O)cc(C(F)(F)F)c3c2)CC1` [Example 24, 6-(4-Methylpiperidine-1-sulfonyl)-4-trifluoromethyl-1H-quinolin-2-one], the pIC50 under setting [1] was 6.02.

With `Cn1c(=O)cc(C(F)(F)F)c2cc(S(=O)(=O)N3CCCC4CCCCC43)ccc21` (stereo not shown) [Example 8, 1-Methyl-6-(octahydro-quinoline-1-sulfonyl)-4-trifluoromethyl-1H-quinolin-2-one], the negative-log IC50 (pIC50) under setting [1] was less than 5.00. Regarding `O=c1cc(C(F)(F)F)c2cc(S(=O)(=O)N3CCC(O)(c4cccs4)CC3)ccc2[nH]1` [Example 16, 6-(4-Hydroxy-4-thiophen-2-ylpiperidine-1-sulfonyl)-4-trifluoromethyl-1H-quinolin-2-one], under setting [1], the pIC50 was 6.19.

Turning to `O=C(CN1CCN(S(=O)(=O)c2ccc3[nH]c(=O)cc(C(F)(F)F)c3c2)CC1)N1CCCC1` [Example 23, 6-[4-(2-Oxo-2-pyrrolidin-1-ylethyl)piperazine-1-sulfonyl]-4-trifluoromethyl-1H-quinolin-2-one], the negative-log IC50 (pIC50) under setting [1] is less than 5.00. Take `CC1CCCCN1S(=O)(=O)c1ccc2[nH]c(=O)cc(C(F)(F)F)c2c1` (stereo not shown) [Example 37, 6-(2-Methylpiperidine-1-sulfonyl)-4-trifluoromethyl-1H-quinolin-2-one]: the pIC50 under setting [1] was 5.81. Take `O=c1cc(C(F)(F)F)c2cc(S(=O)(=O)N3CCCCCC3)ccc2[nH]1` [Example 36, 6-(Azepane-1-sulfonyl)-4-trifluoromethyl-1H-quinolin-2-one]: the pIC50 under setting [1] is 6.74. For the compound `O=c1cc(C(F)(F)F)c2cc(S(=O)(=O)N3CCCC4CCCCC43)ccc2[nH]1` (stereo not shown) [Example 31, 6-(Octahydroquinoline-1-sulfonyl)-4-trifluoromethyl-1H-quinolin-2-one], the pIC50 under setting [1] is 6.36.

With `O=c1cc(C(F)(F)F)c2cc(S(=O)(=O)N3CCN(CCOCCO)CC3)ccc2[nH]1` [Example 20, 6-{4-[2-(2-Hydroxyethoxy)-ethyl]piperazine-1-sulfonyl}-4-trifluoromethyl-1H-quinolin-2-one], the negative logarithm of the IC50 (pIC50) under setting [1] is less than 5.00. Take `O=c1cc(C(F)(F)F)c2cc(S(=O)(=O)N3CCCCC3)ccc2[nH]1` [Example 2, 6-(Piperidine-1-sulfonyl)-4-trifluoromethyl-1H-quinolin-2-one]: the negative logarithm of the IC50 (pIC50) (per procedure of Example 57, read-out: IC50) is 6.74.

(Values after patent publication US7064207B2, “Androgen receptor antagonists” (Warner Lambert Company LLC, priority 2003, dated 2006).)
